Measured values published in patent US20260108588A1, “A COMPLEX COMPRISING A ALPHA-LACTALBUMIN AND A FATTY ACID OR LIPID FOR USE IN THE TREATMENT OR PREVENTION OF CANCER” (LINNANE PHARMA AB, priority 2022, published 2026).

Tests used:
[1] = system: DLD1 colorectal adenocarcinoma cells; test: TUNEL assay; format: cell-based, human; conditions: 7 μM, 21 μM and 35 μM, one hour
Experimental: DNA fragmentation was detected using the terminal deoxynucleotidyl transferase dUTP nick end-labeling (TUNEL) assay (Click-IT TUNEL Alexa Fluor 488 imaging assay kit, ThermoFisher Scientific, #C10245). DLD1 cells were seeded in 8-well chamber slide (2×10^4 cells/well) cultured overnight (37° C., 5% CO2) and incubated with BAMLET 7 μM, 21 μM and 35 μM for one hour in serum-free RPMI-1640 at 37° C. Cells were fixed (2% PFA, 15 minutes), permeabilized (0.25% Triton X-100 in PBS, 20 minutes) and incubated with TUNEL reaction mixture containing TdT for 60 minutes at 37° C. After the TUNEL reaction, cells were incubated with Click-iT reaction mixture for 30 minutes. Cells were counterstained with Hoechst 33342 (1:1000, 15 minutes, ThermoFisher Scientifi, Cat #62249), mounted in Fluoromount aqueous mounting media (Sigma, Cat #4680), and examined by LSM 900 confocal microscopy (Carl Zeiss). Fluorescence intensities were quantified by ImageJ.

[2] = system: intestinal gene expression; test: Transcriptomic analysis of intestinal tissue of Apc^Min/+ mice; format: in vivo
Experimental: Approximately 5 mg of tissue was homogenized using a Tissuelyser (Qiagen) and total RNA was extracted using the RNeasy kit (Qiagen), amplified using a GeneChip 3'IVT Express Kit, hybridized onto Mouse Genome 430 PM array strips, and scanned using the GeneAtlas system (Affymetrix). Data was normalized using Robust Multi Average implemented in the Transcriptome Analysis Console software (v.4.0.1.36, Applied Biosystems, ThermoFisher Scientific). Relative expression was analyzed by ANOVA using the empirical Bayes method, and genes with an absolute fold change >1.5 or 2.0 were considered differentially expressed. Heat maps were constructed using Graphpad Prism 9 and differentially expressed genes were analyzed using Ingenuity Pathway Analysis software (IPA, Qiagen).

[3] = system: VEGF, Ki67, Cyclin D1 and β-catenin; test: Immunohistochemistry of intestinal sections for tumor markers; format: in vivo, mice; conditions: vs sham
Text: (§1) Swiss rolls of longitudinally opened intestinal segments were fixed overnight in 10% neutral buffered formalin. Samples were embedded in paraffin and 5 μm thick sections were further processed for histology and immunohistochemistry using antibodies for bovine alpha-Lactalbumin (ThermoFisher Scientific, Cat #A10-128A), β-catenin (CellSignaling, Cat #9562), Cyclin D1 (ThermoFisher Scientific, Cat #SC8396), Ki-67 (BD Biosciences, Cat #556003), VEGF (Abcam, Cat #ab46154), PD-1 (Abcam, Cat #ab214421) and TTF-1 (Abcam, Cat #ab227652) as previously described^28 with slight modifications. Citrate buffer (Dako Target Retrieval Solution, Agilent, Cat #S1699) was used for antigen retrieval for Cyclin D1, Ki-67, VEGF, bovine alpha-Lactalbumin and β-catenin staining. EDTA buffer (Abcam, Cat #ab64216) was used for antigen retrieval for TTF-1 staining. Immunohistochemistry was quantified by ImageJ. For Hematoxylin-Eosin (H&E) staining, Hematoxylin (ThermoFisher Scientific, Cat #7211) was used followed by Eosin-Y (ThermoFisher Scientific, Cat #7111) for counterstaining. Images were captured using the AX10 microscope or the Hamamatzu Nanozoomer scanner (Carl Zeiss) and the DAB-positive beta-catenin antibody fields (4-10) for each organ cross-sections were quantified by ImageJ.

[4] = system: intestine of healthy C57BL/6 mice; test: Real-time in vivo fluorescence imaging of BAMLET in healthy mice; conditions: oral gavage
[5] = system: lungs, livers, kidneys and spleens of Apc^Min/+ mice; test: Macroscopy, histology and immunohistochemistry of organs outside the intestine of Apc^Min/+ mice, long-term drinking water; format: in vivo
Experimental: For BAMLET prophylaxis protocol, ten-week-old female Apc^Min/+ mice (n=10 mice per group) were provided daily with BAMLET (20 mg/day in 5 ml PBS) in the drinking water for eight weeks and sacrificed at 18 weeks of age. A similar treatment was used in the survival study groups where mice were observed until 37 weeks of age.
as §1

HT29 cells = test: Colony assay; format: cell-based, human; conditions: HT29, 7, 21 and 35 μM
Experimental: (§2) Cells were seeded on 12-well plates (1×10^3 cells/well) and incubated overnight. Cells were treated with different complexes: BAMLET (7, 21, and 35 μM) or alpha1-oleate (7, 21, and 35 μM) in serum-free media and incubated for one hour at 37° C., 5% CO2. The incubation was continued after the addition of FCS to the media. On day ten post-treatment, the cells were washed once and fixed with cold methanol (300 μl) for 15 minutes on ice. Finally, colonies of cells were stained with hematoxylin (ThermoFisher Scientific, Cat #7211) for five minutes and images were captured under a dissecting microscope (Carl Zeiss). The experiment was repeated twice for each cell line.

DLD1 cells = test: Colony assay; format: cell-based, human; conditions: DLD1, 7, 21 and 35 μM
Experimental: as §2

[6] = Giant unilamellar vesicle experiments, membrane response; conditions: 21 μM BAMLET, one hour
Experimental: Giant unilamellar vesicles (GUVs) were formed by hydrogel-assisted swelling according to established protocols^29,30, with modifications previously described^31. Briefly, glass cover slips were sonicated in 1 M NaOH solution (30 minutes), rinsed in Milli-Q water (three times) and further sonicated (30 minutes). Coverslips were plasma etched (1 min) using a BD-20 laboratory corona treater (Electro Technic Products Inc.) to render the surface clean and hydrophilic. A thin film of 1% (w/v) solution of molten ultra-low gelling temperature type IX-A agarose (Sigma) was deposited on the coverslip to provide a reaction bed for GUV formation. The cover slips were placed in AttoFluor® cell chambers (ThermoFisher Scientific). Following, 25 μl of egg phosphatidylcholine (#840051P—Avanti Polar Lipids) in chloroform (25 mg/ml) doped with 4% v/v rhodamine C (1 mg/ml, Sigma) were deposited onto the gelled agarose surface, and the solvent evaporated with nitrogen gas. The lipid-hydrogel film was rehydrated with 200 mM sucrose in PBS, pH 7.2 for one hour and then transferred into 200 mM glucose in PBS, pH 7.2 for sedimentation. GUVs were allowed to settle overnight before seeded on the coverslips for visualization after treatment with 21 μM BAMLET for one hour.

[7] = system: Wnt/β-catenin signaling pathway; test: Gene expression analysis of lungs, livers and kidneys of Apc^Min/+ mice; format: in vivo; conditions: BAMLET treated compared to sham treated Apc^Min/+ mice

Substance: BAMLET
- TUNEL staining (DNA strand breaks) [1]: Dose-dependent increase
- intestinal gene expression compared to healthy C57BL/6 mice ([2]; BAMLET treated Apc^Min/+ mice in contrast to sham, including cancer related biofunctions): significantly less affected
- number of genes regulated at all time points (shared genes) ([2]; BAMLET treated vs sham, cut-off fold change ≥2.0): 2339
- cancer-related biofunctions ([2]; BAMLET treated vs sham, gavage or drinking water, shared genes): inhibited
- Wnt/β-catenin signaling (network analysis of shared genes) ([2]; genes regulated at all time points (2w pt, 5w pt, 8w dw), vs sham): inhibited
- Wnt/β-catenin signaling pathway, intestinal gene expression ([2]; long-term follow up, BAMLET in drinking water): inhibited
- PD-1 pathway activation (gene expression) ([2]; long-term, BAMLET treated Apc^Min/+ mice compared to healthy C57BL/6 mice): reduced PD-1 pathway activation
- PD-1 pathway (gene expression) ([2]; long-term, direct comparison BAMLET treated vs sham): most strongly down-regulated
- CD44 and its ligand SPP1 (osteopontin) expression ([2]; tumor microenvironment pathway, BAMLET vs sham): most strongly inhibited genes in the tumor microenvironment pathway
- principal component analysis of mRNA profiles ([2]; whole intestinal tissue): formed a cluster near the healthy mice and distant from the sham group
- expression of tumor markers VEGF, Ki67, Cyclin D1 and β-catenin ([3]; intestinal sections, five weeks post gavage and eight weeks drinking water): less strongly expressed
- β-catenin staining of intestinal sections ([3]; long-term BAMLET in drinking water): markedly reduced
- BAMLET retention in the intestines of healthy mice [4]: lack of BAMLET retention
- number of lung areas with proliferating cells ([5]; TTF-1 / β-catenin stained lung sections, vs sham): markedly reduced
- BAMLET staining in lungs, livers or kidneys ([5]; immunohistochemistry, in contrast to the intestine): not detected
- β-catenin staining in lungs, livers and kidneys ([5]; long-term BAMLET in drinking water, vs sham): general reduction
- macroscopic changes in intestine, peritoneal cavity and major organs ([5]; long-term follow up, vs sham): much less apparent
- level of TTF-1 staining in areas with proliferating cells ([5]; lung sections, vs sham): markedly reduced
- colony-forming cells after ten days (HT29 cells): lasting effect
- colony-forming cells after ten days (DLD1 cells): lasting effect
- membrane response [6]: triggered rapid blebbing, tubulation and eventual vesicle division
- Wnt/β-catenin signaling pathway in lungs, livers and kidneys (gene expression) [7]: down-regulated
